Activity calls are given as the source filed them.
Assays:
[1] = biological target: Induced myeloid leukemia cell differentiation protein Mcl-1 (Homo sapiens, UniProt Q07820); format: functional
[2] = growth suppression of PTEN-null colon cells, dose response, cell-based, HCT116 PTEN knockout (AID 1047); format: functional;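 further: HCT116 colon tumor cells with PTEN knocked out; cells exposed to compound for 60 hours before readout; potency for loss of cell viability measured by luminescence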
[3] = growth suppression of beta-catenin-knockout colon cells, dose response, cell-based, HCT116, human colon tumor (AID 1045); format: functional;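 further: HCT116 colon tumor cells with beta catenin knocked out; cells exposed to compound for 60 hours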
[4] = cytotoxicity in HEK-293T cells, dose response, cytotoxicity control for TCR NF-kB inhibitor project, luminescence, T-cell screen hits (AID 489026); format: functional, cell-based;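 further: cells exposed to compound about 14 hours before the viability readout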
INS1 = test: beta cell apoptosis inhibitors, cytokine rescue, dose response, luminescence, retest (AID 449756); format: functional, cell-based; details: Rattus norvegicus;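 further: cell death triggered by IL-1 beta plus TNF-alpha plus IFN-gamma mixture; protective hits raise ATP signal compared with cytokine alone wells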
[5] = Shn3 3'UTR reporter inhibitors, dose response, cell-based, Clone20 osteoblasts, firefly luciferase, cherry-picked (AID 624132); format: functional;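 further: firefly luciferase luminescence from reporter carrying the Shn3 3'UTR in osteoblasts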
[6] = HepG2 cell cytotoxicity, dose response, cytotoxicity control for Shn3 inhibitor project, CellTiter-Glo, cherry-picked (AID 624134); format: functional, cell-based
[7] = biological target: T1, Calpain-2 catalytic subunit (Sus scrofa, UniProt P43367); test: pig calpain II inhibitor potency, dose response, biochemical, fluorogenic peptide substrate (AID 1420); format: functional
T1 sequence (P43367 whole entry): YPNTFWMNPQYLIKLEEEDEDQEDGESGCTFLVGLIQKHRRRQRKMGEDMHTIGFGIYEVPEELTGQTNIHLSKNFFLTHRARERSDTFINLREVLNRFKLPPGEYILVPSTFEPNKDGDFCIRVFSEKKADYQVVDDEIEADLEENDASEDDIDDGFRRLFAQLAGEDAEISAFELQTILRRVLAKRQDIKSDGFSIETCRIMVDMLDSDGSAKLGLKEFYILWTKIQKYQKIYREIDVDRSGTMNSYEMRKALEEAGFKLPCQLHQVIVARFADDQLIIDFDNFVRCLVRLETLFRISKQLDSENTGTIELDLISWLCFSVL

[8] = inhibitors of intracellular T. cruzi replication, confirmation, NIH3T3 host cells, beta-gal luminescence (AID 2044); format: functional, cell-based;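 further: intracellular parasites grown in NIH/3T3 mouse fibroblasts as host cells; luminescent beta-galactosidase reporter signal from transgenic T. cruzi replicating inside host cells; inhibitors lower the luminescence signal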
[9] = cytotoxicity toward NIH3T3 fibroblasts, dose response, counter-screen, cell-based, ATP luminescence, mouse fibroblasts (AID 2010); format: functional;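 further: cells exposed to compound for about 90 hours before reading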
[10] = biological target: T2, Polyadenylate-binding protein 1 (Homo sapiens, UniProt P11940); test: PABP1 MLLE–PAM2 interaction inhibitors, dose response, miRNA deadenylation inhibitor project, biochemical, fluorescence polarization, Cy5-PAM2 peptide, secondary (AID 602260); format: functional; details: read-out: IC50_Mean
T2 sequence (P11940 whole entry): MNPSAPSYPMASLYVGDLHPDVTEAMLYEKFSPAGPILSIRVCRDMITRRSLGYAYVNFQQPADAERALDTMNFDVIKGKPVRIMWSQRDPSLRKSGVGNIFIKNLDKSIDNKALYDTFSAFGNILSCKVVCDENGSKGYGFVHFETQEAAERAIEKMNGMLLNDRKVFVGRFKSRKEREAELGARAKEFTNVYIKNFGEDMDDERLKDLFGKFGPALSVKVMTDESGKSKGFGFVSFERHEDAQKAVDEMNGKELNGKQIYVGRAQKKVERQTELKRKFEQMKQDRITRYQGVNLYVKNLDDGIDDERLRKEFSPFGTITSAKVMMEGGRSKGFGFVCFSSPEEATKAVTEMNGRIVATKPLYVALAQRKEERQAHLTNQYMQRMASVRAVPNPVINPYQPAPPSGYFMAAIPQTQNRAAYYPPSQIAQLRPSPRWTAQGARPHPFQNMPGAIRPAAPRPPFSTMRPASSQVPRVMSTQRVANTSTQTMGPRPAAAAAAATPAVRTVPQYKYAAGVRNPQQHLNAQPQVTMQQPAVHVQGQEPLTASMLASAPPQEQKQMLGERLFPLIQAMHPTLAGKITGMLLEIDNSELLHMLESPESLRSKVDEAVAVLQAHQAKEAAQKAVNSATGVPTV

[11] = biological target: T2, Polyadenylate-binding protein 1; test: PABP1 MLLE–PAM2 binding inhibitor potency, dose response, biochemical, fluorescence polarization, FITC-PAM2 peptide (AID 602259); format: functional; details: read-out: IC50_Mean
cells [12] = format: functional, cell-based
cells [13] = format: functional, cell-based; remark: listed apart in the source
BJ [14] = test: cytotoxicity toward BJ-TERT fibroblasts, dose response, cell-based, RAS-independent, luminescence (AID 1933); format: functional; details: Homo sapiens
BJ [15] = test: cells; format: functional, cell-based; details: Homo sapiens
BJ [16] = test: cytotoxicity toward BJ-TERT-LT-ST fibroblasts, dose response, cell-based, RAS-independent, luminescence (AID 1935); format: functional; details: Homo sapiens;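 further: BJ fibroblasts immortalized with TERT plus LT and ST oncogenes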
[17] = cytotoxicity toward DRD oncogenic fibroblasts, dose response, cell-based, non-viral oncogenic, luminescence (AID 1934); format: functional; details: Homo sapiens
[18] = P. falciparum Dd2 growth inhibitors, dose response, SYBR Green, cherry-picked samples (AID 1159567); format: functional, cell-based
[19] = Luminescence Cell-Based Dose Retest to Confirm Inhibitors of Cancer Stem Cells. [Related pubchem assays (depositor defined):AID2717, AID2721]; format: functional; details: Homo sapiens
Vero = test: cells; format: functional; details: Chlorocebus sabaeus
Paired box protein Pax-8 = Paired box protein Pax-8 (Homo sapiens, UniProt Q06710); test: inhibitors of PAX8-driven TPO luciferase reporter, dose response, RMG-I cells, cherry-pick (AID 687027); format: functional, cell-based;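 further: luciferase reporter driven by Pax8 target thyroperoxidase promoter measured by SteadyGlo luminescence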
Chain of Paired box protein Pax-8 (Q06710 whole entry): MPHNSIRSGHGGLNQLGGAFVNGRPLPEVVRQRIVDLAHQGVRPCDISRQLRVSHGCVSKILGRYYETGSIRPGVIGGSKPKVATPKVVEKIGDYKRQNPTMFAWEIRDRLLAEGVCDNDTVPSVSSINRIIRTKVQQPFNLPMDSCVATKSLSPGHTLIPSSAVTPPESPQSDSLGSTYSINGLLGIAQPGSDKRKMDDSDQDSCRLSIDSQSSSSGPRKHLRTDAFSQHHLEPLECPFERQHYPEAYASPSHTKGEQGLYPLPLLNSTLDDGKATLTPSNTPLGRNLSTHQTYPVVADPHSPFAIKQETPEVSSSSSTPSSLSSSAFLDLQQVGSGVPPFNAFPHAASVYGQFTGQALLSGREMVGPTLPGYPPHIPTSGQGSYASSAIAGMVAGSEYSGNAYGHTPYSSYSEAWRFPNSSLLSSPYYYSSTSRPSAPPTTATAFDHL

Chain of Induced myeloid leukemia cell differentiation protein Mcl-1 (Q07820 whole entry): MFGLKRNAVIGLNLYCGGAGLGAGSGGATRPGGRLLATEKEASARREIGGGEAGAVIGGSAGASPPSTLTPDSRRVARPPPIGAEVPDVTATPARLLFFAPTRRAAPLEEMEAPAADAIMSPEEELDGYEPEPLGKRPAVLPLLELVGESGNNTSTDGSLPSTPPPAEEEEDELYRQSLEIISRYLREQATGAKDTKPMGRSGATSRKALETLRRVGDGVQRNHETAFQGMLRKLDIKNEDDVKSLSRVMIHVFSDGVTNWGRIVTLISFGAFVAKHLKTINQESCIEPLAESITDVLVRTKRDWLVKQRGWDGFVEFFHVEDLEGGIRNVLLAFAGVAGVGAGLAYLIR

Structure (SMILES): Cc1cc(N(CCO)CCO)ccc1C(c1ccc(N(CCO)CCO)cc1C)c1ccccc1Cl
- IC50 [1]: 2.71 µM (active)

Structure (SMILES): O=c1c2c3nc4ccccc4nc3n(Cc3ccccc3)c2ncn1Cc1ccco1
- IC50 [1]: 6.14 µM (not active)

Structure (SMILES): COC(=O)c1ccc(/C=C/C(=O)c2ccc(OC)c(OC)c2)cc1
- EC50 [2]: 8.4 µM (active)
- EC50 [3]: 7.25 µM (active)

Structure (SMILES): Cc1nc(-n2ncc(C#N)c2N)c2c3c(sc2n1)CCC3
- EC50 [2]: 24.8 µM (active)
- EC50 [3]: 32 µM (active)

Structure (SMILES): O=C(/C=C/c1ccc([N+](=O)[O-])cc1)c1cccnc1
- EC50 [2]: 5.8 µM (active)
- EC50 [3]: 4.4 µM (active)

Structure (SMILES): Cc1ccc(S(=O)(=O)NCc2ccncc2)cc1C
- IC50 [4]: > 80 µM (inactive)
- AC50 (INS1): 3.06 µM (active)
- AC50 [5]: 0.585 µM (active)
- AC50 [6]: 2.43 µM (active)

Structure (SMILES): COc1cc(-c2cc(C(=O)Nc3c(Cl)cc(Cl)cc3Cl)c3ccccc3n2)cc(OC)c1OC
- EC50 [2]: 26 µM (active)
- EC50 [3]: 44.6 µM (active)

Structure (SMILES): Cn1cc([N+](=O)[O-])c(C(=O)Nc2cc(Oc3cccnc3)cc([N+](=O)[O-])c2)n1
- EC50 [2]: 1.24 µM (active)
- IC50 [7]: 15.3 µM (not active)
- EC50 [3]: 1.02 µM (active)

Structure (SMILES): CCOC(=O)N1CCN(C(=O)C2CCCN(Cc3nc(-c4ccc(Cl)cc4)oc3C)C2)CC1 (stereo not drawn)
- IC50 [4]: > 80 µM (inactive)

Structure (SMILES): O=C(NC1CCCCC1)c1nc[nH]c1C(=O)Nc1ccc([N+](=O)[O-])cc1
- EC50 [2]: 8.84 µM (active)
- EC50 [3]: 8.87 µM (active)

Structure (SMILES): Cc1ccc2c(c1)c1nnc(S)nc1n2CCc1ccccc1
- EC50 [8]: 2.1 µM (active)
- EC50 [9]: > 60 µM (not active)
- IC50 [10]: > 66 µM (inactive)
- IC50 [11]: > 66 µM (inactive)

Structure (SMILES): Cc1ccc2nc(N3CC(=O)Nc4ccccc43)nc(-c3ccccc3)c2c1
- EC50 [2]: 11.5 µM (active)
- EC50 [3]: 10.4 µM (active)

Structure (SMILES): COc1cc(/C=C(/NC(C)=O)C(=O)O)cc(Cl)c1OCc1ccc(Br)cc1
- IC50 [1]: 3.47 µM (not active)

Structure (SMILES): CCc1nc(SCC(=O)c2ccccc2)c2ccccc2n1
- EC50 (cells [12]): > 350 µM (not active)
- EC50 (cells [13]): > 350 µM (not active)
- IC50 [10]: > 66 µM (inactive)
- IC50 [11]: > 66 µM (inactive)

Structure (SMILES): C=CCC1(C#N)C(=S)N=C2CC(C)(C)CC(O)=C2C1c1ccc(Br)cc1 (stereo not drawn)
- EC50 [2]: 14.6 µM (active)
- EC50 [3]: 14.9 µM (active)

Structure (SMILES): CCOC(=O)c1c(C)[nH]c(C(=O)N/N=C/c2ccc(Br)cc2)c1C
- EC50 (BJ [14]): 0.327 µM (active)
- EC50 (BJ [15]): 35.1 µM (inconclusive)
- EC50 (BJ [16]): 0.733 µM (inconclusive)
- EC50 [17]: 0.387 µM (active)
- IC50 [4]: > 80 µM (inactive)

Structure (SMILES): CCC(=O)N1CC2(C1)CN(Cc1ccc(Cl)cc1)[C@@H](CO)c1[nH]c3cc(OC)ccc3c12
- AC50 [18]: 7.24 µM (active)

Structure (SMILES): CO[C@H]1CN(C)C(=O)c2cc(NC(=O)C3CC3)ccc2OC[C@H](C)N(Cc2cccc(F)c2)C[C@H]1C
- AC50 [18]: 6.05 µM (active)

Structure (SMILES): N#C[C@H]1[C@H](c2ccc(C#CC3CCCCC3)cc2)[C@@H](CO)N1S(=O)(=O)c1ccccc1
- AC50 [18]: 3.24 µM (active)

Structure (SMILES): CCCC#Cc1cnc2c(c1)C(=O)N([C@@H](C)CO)C[C@H](C)[C@H](CN(C)C(=O)Nc1cccc(F)c1)O2
- AC50 [18]: 8.83 µM (active)

Structure (SMILES): COc1ccc(-c2ccc([C@@H]3[C@H]4CNC[C@@H]3N4C(=O)Nc3ccc(C(F)(F)F)cc3)cc2)cc1
- AC50 [18]: 15 µM (active)

Structure (SMILES): CO[C@H]1CN(C)C(=O)c2cc(NC(=O)C3CC3)ccc2OC[C@@H](C)N(Cc2cc(F)ccc2F)C[C@H]1C
- AC50 [18]: 6.09 µM (active)

Structure (SMILES): C[C@]12CC[C@H]3[C@@H](CC[C@]4(O)C[C@@H](O)CC[C@]34C=O)[C@@]1(O)CC[C@@H]2C1=CC(=O)OC1 [STROPHANTHIDIN]
- AC50 [19]: 0.582 µM (active)
- IC50 [4]: > 80 µM (inactive)
- CC50 (Vero): 1.22 µM (active)
- AC50 (Paired box protein Pax-8): 2.22 µM (active)

Reference: ChEMBL document CHEMBL1201862, “PubChem BioAssay data set” (2004)
